Assay results: ChEMBL document CHEMBL1154378, “Histamine H3 and H4 receptor affinity of branched 3-(1H-imidazol-4-yl)propyl N-alkylcarbamates” (Bioorg Med Chem Lett, 2009)

Legend:
Histamine H3 receptor [1] = biological target: T1, Histamine H3 receptor (Homo sapiens, UniProt Q9Y5N1); experiment: Displacement of [125I]iodoproxyfan from human histamine H3 receptor expressed in CHO-K1 cells
Histamine H4 receptor [2] = biological target: T2, Histamine H4 receptor (Homo sapiens, UniProt Q9H3N8); experiment: Displacement of [3H]histamine from human histamine H4 receptor expressed in SF9 cells coexpressing Galphai2, Gbeta1gamma2
Homo sapiens = species on record: Homo sapiens; experiment: Selectivity, ratio of Ki for human histaminee H4 receptor to Ki for human histamine H3 receptor
Histamine H3 receptor [3] = biological target: T1, Histamine H3 receptor; experiment: Displacement of […]iodoproxyfan from human histamine H3 receptor expressed in HEK293 cells; type: cell-based
Histamine H4 receptor [4] = biological target: T2, Histamine H4 receptor; experiment: Displacement of [3H]histamine from human histamine H4 receptor expressed in HEK293 cells; type: cell-based
Histamine H3 receptor [5] = biological target: Histamine H3 receptor (Rattus norvegicus, UniProt Q9QYN8); experiment: Displacement of [3H]histamine from histamine H3 receptor in rat cerebral cortex; type: tissue-based
Sequence of Histamine H3 receptor (Rattus norvegicus, UniProt Q9QYN8) (Q9QYN8 whole entry): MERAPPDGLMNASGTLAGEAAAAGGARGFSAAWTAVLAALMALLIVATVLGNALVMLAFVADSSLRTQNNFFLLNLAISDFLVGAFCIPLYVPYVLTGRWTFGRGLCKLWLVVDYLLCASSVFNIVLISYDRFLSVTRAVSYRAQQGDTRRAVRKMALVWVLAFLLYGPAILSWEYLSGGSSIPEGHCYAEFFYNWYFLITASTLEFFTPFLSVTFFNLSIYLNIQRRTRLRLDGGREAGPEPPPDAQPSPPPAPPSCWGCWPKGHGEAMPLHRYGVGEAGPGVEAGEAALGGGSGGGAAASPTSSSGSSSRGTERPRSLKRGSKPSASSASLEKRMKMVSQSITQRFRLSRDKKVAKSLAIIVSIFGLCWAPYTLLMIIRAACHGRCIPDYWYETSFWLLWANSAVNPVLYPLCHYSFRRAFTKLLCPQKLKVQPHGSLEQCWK

T2 sequence (Q9H3N8 whole entry): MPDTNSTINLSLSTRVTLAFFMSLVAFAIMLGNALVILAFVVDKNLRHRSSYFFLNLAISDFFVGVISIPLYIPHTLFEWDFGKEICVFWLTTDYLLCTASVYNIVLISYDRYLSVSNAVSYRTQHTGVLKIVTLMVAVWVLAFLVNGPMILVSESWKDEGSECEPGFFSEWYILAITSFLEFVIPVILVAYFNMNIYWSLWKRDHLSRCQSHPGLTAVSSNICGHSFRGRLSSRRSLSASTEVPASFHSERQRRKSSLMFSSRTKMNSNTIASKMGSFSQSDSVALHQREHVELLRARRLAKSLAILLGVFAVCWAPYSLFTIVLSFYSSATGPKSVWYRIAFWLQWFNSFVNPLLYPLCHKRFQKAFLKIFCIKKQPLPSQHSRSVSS
T1 sequence (Q9Y5N1 whole entry): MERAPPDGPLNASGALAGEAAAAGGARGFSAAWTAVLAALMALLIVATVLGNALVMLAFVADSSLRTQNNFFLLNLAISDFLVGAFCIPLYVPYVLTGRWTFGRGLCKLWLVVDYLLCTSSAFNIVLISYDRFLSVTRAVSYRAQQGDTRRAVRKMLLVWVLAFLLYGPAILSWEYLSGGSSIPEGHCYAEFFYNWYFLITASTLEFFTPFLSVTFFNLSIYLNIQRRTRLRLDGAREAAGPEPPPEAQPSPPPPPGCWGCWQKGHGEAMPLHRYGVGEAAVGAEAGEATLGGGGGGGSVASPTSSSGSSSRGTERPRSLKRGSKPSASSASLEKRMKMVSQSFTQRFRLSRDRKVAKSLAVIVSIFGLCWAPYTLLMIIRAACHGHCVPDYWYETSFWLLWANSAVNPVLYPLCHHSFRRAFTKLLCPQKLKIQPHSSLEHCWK

Compound	Ki (Histamine H3 receptor [1]) [µM]	Ki (Histamine H4 receptor [2]) [µM]	Ratio Ki (Homo sapiens)	other results
CC(C)CCC(C)NC(=O)OCCCc1cnc[nH]1 (racemic)	0.03			
CC[C@H](C)NC(=O)OCCCc1c[nH]cn1	0.031			
CC[C@H](C)CNC(=O)OCCCc1c[nH]cn1	0.0047	0.118	25	
CCC(C)NC(=O)OCCCc1c[nH]cn1 (racemic)	0.049			
CCCCC(CC)CNC(=O)OCCCc1cnc[nH]1 (racemic)	0.037	0.779		
CCCC[C@@H](C)NC(=O)OCCCc1c[nH]cn1			22	
CCCCC(CC)CNC(=O)OCCCc1c[nH]cn1 (racemic)			21	
CCC(C)CCNC(=O)OCCCc1c[nH]cn1 (racemic)	0.013	0.123	9	
CC[C@@H](C)NC(=O)OCCCc1c[nH]cn1	0.012	0.29	24	
CCCCC[C@@H](C)NC(=O)OCCCc1c[nH]cn1			16	
CCCCC[C@@H](C)NC(=O)OCCCc1cnc[nH]1	0.041	0.636		
CCCCC(C)NC(=O)OCCCc1c[nH]cn1 (racemic)	0.029	0.695	24	
CCCCCC[C@H](C)NC(=O)OCCCc1c[nH]cn1				Ki (Histamine H3 receptor [3]): 0.043 µM
CCCCCC(C)NC(=O)OCCCc1c[nH]cn1 (racemic)	0.052			
CCCC(C)NC(=O)OCCCc1c[nH]cn1 (racemic)	0.021			
CCCC(C)CNC(=O)OCCCc1c[nH]cn1 (racemic)	0.0083	0.162	20	
O=C(c1ccc(OCCCc2cnc[nH]2)cc1)C1CC1 [CIPROXIFAN]				Ki (Histamine H4 receptor [4]): 0.612 µM
CC(C)CCCC(C)NC(=O)OCCCc1cnc[nH]1 (racemic)	0.075			Ki (Histamine H3 receptor [5]): 0.022 µM
CCCCC[C@H](C)NC(=O)OCCCc1cnc[nH]1	0.074	1.46		
NC(=NCc1ccc(Cl)cc1)SCCCc1cnc[nH]1 [CLOBENPROPIT]				Ki (Histamine H4 receptor [4]): 0.0043 µM
CCCCCCC(C)NC(=O)OCCCc1c[nH]cn1 (racemic)	0.091			
CCCCC[C@H](C)NC(=O)OCCCc1c[nH]cn1			20	
CCC[C@@H](C)NC(=O)OCCCc1cnc[nH]1	0.015			
CCCCCC[C@@H](C)NC(=O)OCCCc1c[nH]cn1				Ki (Histamine H3 receptor [3]): 0.028 µM
CCCC[C@H](C)NC(=O)OCCCc1cnc[nH]1	0.042			
CCCC[C@@H](C)NC(=O)OCCCc1cnc[nH]1	0.019	0.426		
